Molecules are shown by their SMILES.

The source of these data is patent US20060094668A1 (Wyeth, priority 2004, published 2006).

Data set [1] is described as follows: Urinary digoxin pharmacokinetics (Ae, CLr), digoxin alone vs with tigecycline. The settings on record: N = 20; for CL renal: human, urine and plasma, oral, 0.25 mg, CLr. The text has this: In addition, a 24-hour urine collection (day 14 to day 15) for PK analysis was completed for each subject.
Subjects were required to void completely at the end of the predose period and at the end of each time interval after dose administration to ensure a complete interval collection.
Pharmacodynamic Assessments

Data set [2] is described as follows: clinical. To be noted: human, in vivo; for AUC(0-t): AUC0-12 h; for Vd: Vss. The procedure:
One (1) hour after a medium-fat meal, and after a predose 7-mL blood sample for a baseline tigecycline PK analysis, each subject received a single 100-mg dose of tigecycline.
Venous blood samples (7 mL each) for determination of tigecycline concentrations in serum were collected at the following times: on day 1, predose (within 2 hours before the start of the tigecycline infusion), and at 0.5 (end of infusion), 1, 1.5, 2, 3, 4, 6, 8,12,16, 24, 36, 48, 72, and 96 hours after tigecycline administration; and on day 19, predose, and at 0.5 (end of infusion), 1,1.5, 2, 3, 4, 6, 8, 12,16, 24, 36, 48, 72, and 96 hours after tigecycline administration.
Serum tigecycline samples were analyzed by a validated liquid chromatography/tandem mass spectroscopy (LC/MS/MS) method.
Tigecycline peak serum concentration (Cmax) and time to peak concentration (tmax) were reported from the observed data. Concentrations that were judged to be in the terminal phase were used to obtain the terminal-phase disposition rate constant (λz) by log-linear regression. The half-life (t1/2) was calculated as 0.693/λz. Tigecycline concentrations over the time period from hours 24 to 96 were used to estimate the t1/2.
Total AUC0-εr and AUMC were estimated as follows: AUC=(AUCt)+Ct/λz, and AUMC=(AUMCt)+tlast·Ct/λz+Ct/λz●2
The IV clearance (CL) was calculated and normalized by body weight (WT) as follows: CL=Dose/(AUC●WT). The apparent Vss was estimated by Vss=CL·MRT.
For this period of the study, the MRT was calculated as: MRT=(AUMC0-t+(t·Ctλz))/AUC0-t.
According to linear PK theory, (Gibaldi M, Perrier D. Pharmacokinetics. Marcel Dekker, Inc., 1982) the total AUC after a single dose (AUC0-∞) is equal to AUC over the dose interval τ at steady state (AUC0 τ).
For statistical comparisons, AUC, MRT, and Vss on day 1 (period 1) were based on concentrations normalized to the 50-mg tigecycline dose given during period 3.
(§1) Geometric least-squares (GLS) mean ratios of tigecycline PK parameters were computed, and their associated 90% confidence intervals (Cls) calculated based on least squares means and the mean square error obtained from the 2-way ANOVA. […] The SAS statistical software package was used for all statistical analyses.

Data set [3] can be described thus: clinical. To be noted: human, in vivo. The procedure: Both study medications were always administered 1 hour after a medium-fat meal. Tigecycline was administered intravenously (IV) in […] sterile normal saline over 30 minutes for all doses.
At approximately 8 AM, each subject received 100 mg of tigecycline. […] At approximately 8 PM, each subject received 50 mg of tigecycline.
In addition, on days 16 through 18, each subject received 50 mg of tigecycline every 12 hours (at approximately 8 AM and 8 PM).
All samples were collected from an indwelling catheter or by direct venipuncture into blood collection tubes containing ethylenediaminetetraacetic acid.
The Cmax and tmax values were taken directly from the observed data. The λz and t1/2 values were not estimable because blood samples were not collected during the terminal disposition phase.
Vss/F and MRT could not be calculated because λz could not be estimated.
as §1

For data set [4] the following is noted: literature case reports and studies; cited from earlier work.
The format of data set [5] is in vivo, human.
Text: On each day before the start of study periods 1 and 2 (day-1 and day 6), all subjects underwent physical examinations, laboratory tests, vital sign assessments, and a standard 12-lead electrocardiogram (ECG), which included measurements of rhythm, heart rate, PR, QRS, QT, and QTc intervals. Adverse event monitoring was continuous, and blood samples for PK analysis was completed at the designated times throughout all study periods. Before dose administration on days 1, 7 and 15, 3 complete ECGs were performed for each subject, and the mean value used as the subject's baseline for each corresponding period.
Twelve (1 2)-lead ECGs were performed at screening, on day-1, on days 1, 7, 14, 15, and 19 within 2 hours before study drug administration, on days 2 through 6, 8 through 13, 16 through 18, 20, 21, and 22, and at the final evaluation at approximately 8 AM.
Descriptive statistics were obtained for all demographic characteristics, drug concentrations, PK parameters, and changes from baseline in ECG parameters. Analysis of variance (ANOVA) was performed on the natural logarithm-transformed PK parameters to evaluate treatment and subject effects. An analysis of the change from baseline in ECG parameters with and without multiple-dose tigecycline administration was conducted by using ANOVA, which included terms for subject and treatment effects. […]

Regarding `C[C@H]1O[C@@H](O[C@H]2[C@@H](O)C[C@H](O[C@H]3[C@@H](O)C[C@H](O[C@H]4CC[C@@]5(C)[C@H](CC[C@@H]6[C@@H]5C[C@@H](O)[C@]5(C)[C@@H](C7=CC(=O)OC7)CC[C@]65O)C4)O[C@@H]3C)O[C@@H]2C)C[C@H](O)[C@@H]1O` [Digoxin], in data set [1], the “Ae, urinary digoxin, Geo. Mean” value was 40.3%. Further, the CL renal in data set [1] (digoxin renal clearance, Mean ± SD) was 1.82 ± 0.37 mL/min/kg. The CL renal in data set [1] (digoxin, Geo. Mean) was 1.79 mL/min/kg. In addition, the “Ae, urinary digoxin, Mean ± SD” value in data set [1] (percentage of dose excreted unchanged in urine 0-24 h) is on record as 41.3 ± 9.0%. Besides, in data set [2], the “effect on the AUC, CL, or MRT of tigecycline” value is recorded as “did not affect”. Also, in data set [3], the concentration at 0 h is 0.405 ng/mL, the concentration at 0.5 h came to 0.686 ng/mL, the concentration at 1 h came out at 1.02 ng/mL and the concentration at 2 h came out at 0.966 ng/mL. In data set [3], this molecule had a concentration at 4 h of 0.645 ng/mL, a concentration at 6 h of 0.517 ng/mL, a concentration at 8 h of 0.531 ng/mL and a concentration at 10 h of 0.451 ng/mL. Further, in data set [3], the concentration at 12 h is 0.405 ng/mL, the concentration at 16 h stood at 0.383 ng/mL and the concentration at 24 h came to 0.33 ng/mL.

Consider `CC[C@H]1OC(=O)[C@H](C)[C@@H](O[C@H]2C[C@@](C)(OC)[C@@H](O)[C@H](C)O2)[C@H](C)[C@@H](O[C@@H]2O[C@H](C)C[C@H](N(C)C)[C@H]2O)[C@](C)(OC)C[C@@H](C)C(=O)[C@H](C)[C@@H](O)[C@]1(C)O` [Clarithromycin], for which the “effect on plasma levels of digoxin” value in data set [4] is reported as “increase plasma levels of digoxin, sometimes to toxic levels”.

For orientation: clearance means the volume of plasma or blood freed of the substance per unit of time. Low readings indicate inefficient removal, high ones efficient removal. A word on the half-life: it is the time in which the quantity being followed falls by half. In general, AUC(0-t) refers to the area under the concentration-time curve up to a stated or last time point. A word on the AUC: it is the area under the concentration-time curve, a measure of exposure. A word on the MRT: it is a mean duration of stay, worked out from the concentration-time curve. In general, Vd refers to the apparent volume that relates the amount in the body to the concentration in plasma or blood. Read a high Vd as wide distribution into tissue. Regarding `CN(C)c1cc(NC(=O)CNC(C)(C)C)c(O)c2c1C[C@H]1C[C@H]3[C@H](N(C)C)C(O)=C(C(N)=O)C(=O)[C@@]3(O)C(O)=C1C2=O` [Tigecycline], the “effect on steady-state digoxin PD as measured by changes from baseline in ECG parameters” value in data set [5] (PR, QRS, QT, QTc intervals at 24 hours) is “did not produce significant changes”. Moreover, the “QT interval, change from baseline” value in data set [5] (in vivo) is listed as “not changed further”. For the same molecule, in data set [2], the clearance was 3.7 mL/min/kg and the half-life is 26.7 h. Further, in data set [2] (serum tigecycline, Geo. Mean), the AUC(0-t) is 2450 ng·h/mL, the MRT worked out at 29 h and the Vd came out at 6.43 L/kg. Also, in data set [2] (serum tigecycline, Mean ± SD), the AUC(0-t) came to 2480 ± 379 ng·h/mL, the MRT amounted to 30 ± 8.3 h and the Vd is 6.53 ± 1.3 L/kg. The AUC in data set [2] (AUC, serum tigecycline, Mean ± SD) came to 2840 ± 732 ng·h/mL. Moreover, the clearance in data set [2] (iv) was 3.82 mL/min/kg.
